Calls of active or inactive are those of the source.
What was measured:
[1] = target: Neuronal acetylcholine receptor; alpha4/beta2 (Rattus norvegicus) (UniProt P09483+P12390); experiment: Antagonist activity at rat alpha4beta2 nAChR expressed in acetylcholine-induced Xenopus laevis oocytes assessed as inhibition of acetylcholine-induced current at 100 nM by two electrode voltage-clamp assay; type: cell-based; conditions: Oocyte
[2] = Antagonist activity at human alpha9N152G mutant alpha10 nAChR expressed in acetylcholine-induced Xenopus laevis oocytes assessed as inhibition of acetylcholine-induced current at 1:1 ratio of protein by two electrode voltage-clamp assay; type: cell-based; conditions: Oocyte
[3] = target: Neuronal acetylcholine receptor subunit alpha-7 (Homo sapiens, UniProt P36544); experiment: Antagonist activity at human alpha7 nAChR expressed in acetylcholine-induced Xenopus laevis oocytes assessed as inhibition of acetylcholine-induced current at 30 nM by two electrode voltage-clamp assay; type: cell-based; conditions: Oocyte, filed as antagonist
Neuronal acetylcholine receptor subunit alpha-7, sequence (P36544 whole entry): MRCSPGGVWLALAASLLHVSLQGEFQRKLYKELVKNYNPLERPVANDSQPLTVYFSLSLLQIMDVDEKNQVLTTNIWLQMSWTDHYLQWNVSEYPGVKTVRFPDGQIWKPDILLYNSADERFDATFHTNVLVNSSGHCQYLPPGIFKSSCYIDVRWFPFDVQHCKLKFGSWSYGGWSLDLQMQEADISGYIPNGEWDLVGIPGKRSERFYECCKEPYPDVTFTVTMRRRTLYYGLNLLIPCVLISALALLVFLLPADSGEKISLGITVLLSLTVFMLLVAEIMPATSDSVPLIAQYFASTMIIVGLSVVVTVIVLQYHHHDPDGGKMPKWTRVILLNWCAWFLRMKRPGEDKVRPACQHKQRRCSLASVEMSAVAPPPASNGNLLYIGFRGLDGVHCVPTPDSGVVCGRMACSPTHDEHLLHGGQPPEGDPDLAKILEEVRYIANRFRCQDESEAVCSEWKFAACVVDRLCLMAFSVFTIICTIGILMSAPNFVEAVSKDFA

[4] = Toxicity in rat assessed as motor impairment at 250 microg/kg,IM administrated for 14 consecutive days by rotarod test; conditions: in vivo, 0.25 mg/kg, dose 250 µg/kg
[5] = target: T1, Neuronal acetylcholine receptor; alpha9/alpha10 (Homo sapiens) (UniProt Q9UGM1+Q9GZZ6); experiment: Antagonist activity at human alpha9alpha10 nAChR expressed in acetylcholine-induced Xenopus laevis oocytes assessed as inhibition of acetylcholine-induced current at 30 nM at -80 mV holding potential by two electrode voltage-clamp assay; type: cell-based; conditions: Oocyte, filed as antagonist
[6] = target: Sodium channel protein type 10 subunit alpha (Homo sapiens) (UniProt Q9Y5Y9); experiment: Inhibition of Nav1.8 (unknown origin) at 1 uM
[7] = target: T2, Potassium/sodium hyperpolarization-activated cyclic nucleotide-gated channel 2 (Homo sapiens) (UniProt Q9UL51); experiment: Inhibition of HCN2 (unknown origin) at 1 uM
T2 sequence (whole entry): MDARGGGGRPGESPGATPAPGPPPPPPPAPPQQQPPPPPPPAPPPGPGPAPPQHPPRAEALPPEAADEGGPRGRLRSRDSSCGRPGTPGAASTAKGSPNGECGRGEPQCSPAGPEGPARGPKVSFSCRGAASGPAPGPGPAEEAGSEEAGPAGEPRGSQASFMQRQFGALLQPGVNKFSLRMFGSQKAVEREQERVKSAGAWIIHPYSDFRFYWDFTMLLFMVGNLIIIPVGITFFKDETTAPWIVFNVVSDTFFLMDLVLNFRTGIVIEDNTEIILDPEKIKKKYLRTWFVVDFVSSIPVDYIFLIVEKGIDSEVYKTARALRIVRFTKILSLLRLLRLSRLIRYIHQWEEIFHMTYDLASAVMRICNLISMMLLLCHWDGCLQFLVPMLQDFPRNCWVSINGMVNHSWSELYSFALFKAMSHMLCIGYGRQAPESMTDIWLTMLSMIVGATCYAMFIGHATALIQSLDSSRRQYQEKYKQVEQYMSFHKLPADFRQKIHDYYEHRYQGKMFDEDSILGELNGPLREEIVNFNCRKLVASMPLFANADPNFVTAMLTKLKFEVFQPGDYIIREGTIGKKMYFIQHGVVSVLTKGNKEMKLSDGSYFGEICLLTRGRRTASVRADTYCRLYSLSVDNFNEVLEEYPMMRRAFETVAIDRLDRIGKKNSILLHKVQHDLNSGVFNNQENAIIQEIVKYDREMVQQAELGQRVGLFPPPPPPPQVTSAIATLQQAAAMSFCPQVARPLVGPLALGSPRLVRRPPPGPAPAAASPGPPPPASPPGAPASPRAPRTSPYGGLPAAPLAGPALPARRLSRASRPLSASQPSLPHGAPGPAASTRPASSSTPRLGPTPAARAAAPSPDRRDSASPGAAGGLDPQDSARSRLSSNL

[8] = target: Neuronal acetylcholine receptor subunit alpha-7 (Rattus norvegicus) (UniProt Q05941); experiment: Antagonist activity at rat alpha7 nAChR expressed in acetylcholine-induced Xenopus laevis oocytes assessed as inhibition of acetylcholine-induced current at 100 nM by two electrode voltage-clamp assay relative to control; type: cell-based; conditions: Oocyte
Neuronal acetylcholine receptor subunit alpha-7 (Rattus norvegicus), sequence (Q05941 whole entry): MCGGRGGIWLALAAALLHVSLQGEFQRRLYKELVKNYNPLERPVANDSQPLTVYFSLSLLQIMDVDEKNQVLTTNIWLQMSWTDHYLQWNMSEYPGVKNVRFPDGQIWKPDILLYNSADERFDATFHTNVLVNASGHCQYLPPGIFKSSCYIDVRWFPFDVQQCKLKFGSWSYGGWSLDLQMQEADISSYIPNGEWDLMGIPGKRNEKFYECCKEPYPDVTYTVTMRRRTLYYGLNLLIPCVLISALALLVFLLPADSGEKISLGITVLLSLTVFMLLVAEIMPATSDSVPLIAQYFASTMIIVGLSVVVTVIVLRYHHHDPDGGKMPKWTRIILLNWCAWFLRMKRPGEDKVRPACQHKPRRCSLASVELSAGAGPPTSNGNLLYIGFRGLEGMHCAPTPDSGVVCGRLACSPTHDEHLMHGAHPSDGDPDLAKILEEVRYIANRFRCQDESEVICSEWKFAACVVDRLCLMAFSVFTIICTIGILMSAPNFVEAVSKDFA

[9] = target: T1, Neuronal acetylcholine receptor; alpha9/alpha10 (Homo sapiens); experiment: Antagonist activity at human wild type alpha9alpha10 nAChR expressed in acetylcholine-induced Xenopus laevis oocytes assessed as inhibition of acetylcholine-induced current at 30 nM by two electrode voltage-clamp assay relative to control; type: cell-based; conditions: Oocyte, filed as antagonist
[10] = target: T3, Voltage-dependent N-type calcium channel subunit alpha-1B (Homo sapiens, UniProt Q00975); experiment: Inhibition of human Cav2.2 channel transfected in HEK293T cells co-expressed with human GABAB receptor assessed as inhibition of Cav2.2-mediated Ba2+ current at 100 nM measured for 3 to 5 days by whole-cell patch clamp assay; type: cell-based; conditions: time 3-5 day
T3 sequence (Q00975 whole entry, looked up): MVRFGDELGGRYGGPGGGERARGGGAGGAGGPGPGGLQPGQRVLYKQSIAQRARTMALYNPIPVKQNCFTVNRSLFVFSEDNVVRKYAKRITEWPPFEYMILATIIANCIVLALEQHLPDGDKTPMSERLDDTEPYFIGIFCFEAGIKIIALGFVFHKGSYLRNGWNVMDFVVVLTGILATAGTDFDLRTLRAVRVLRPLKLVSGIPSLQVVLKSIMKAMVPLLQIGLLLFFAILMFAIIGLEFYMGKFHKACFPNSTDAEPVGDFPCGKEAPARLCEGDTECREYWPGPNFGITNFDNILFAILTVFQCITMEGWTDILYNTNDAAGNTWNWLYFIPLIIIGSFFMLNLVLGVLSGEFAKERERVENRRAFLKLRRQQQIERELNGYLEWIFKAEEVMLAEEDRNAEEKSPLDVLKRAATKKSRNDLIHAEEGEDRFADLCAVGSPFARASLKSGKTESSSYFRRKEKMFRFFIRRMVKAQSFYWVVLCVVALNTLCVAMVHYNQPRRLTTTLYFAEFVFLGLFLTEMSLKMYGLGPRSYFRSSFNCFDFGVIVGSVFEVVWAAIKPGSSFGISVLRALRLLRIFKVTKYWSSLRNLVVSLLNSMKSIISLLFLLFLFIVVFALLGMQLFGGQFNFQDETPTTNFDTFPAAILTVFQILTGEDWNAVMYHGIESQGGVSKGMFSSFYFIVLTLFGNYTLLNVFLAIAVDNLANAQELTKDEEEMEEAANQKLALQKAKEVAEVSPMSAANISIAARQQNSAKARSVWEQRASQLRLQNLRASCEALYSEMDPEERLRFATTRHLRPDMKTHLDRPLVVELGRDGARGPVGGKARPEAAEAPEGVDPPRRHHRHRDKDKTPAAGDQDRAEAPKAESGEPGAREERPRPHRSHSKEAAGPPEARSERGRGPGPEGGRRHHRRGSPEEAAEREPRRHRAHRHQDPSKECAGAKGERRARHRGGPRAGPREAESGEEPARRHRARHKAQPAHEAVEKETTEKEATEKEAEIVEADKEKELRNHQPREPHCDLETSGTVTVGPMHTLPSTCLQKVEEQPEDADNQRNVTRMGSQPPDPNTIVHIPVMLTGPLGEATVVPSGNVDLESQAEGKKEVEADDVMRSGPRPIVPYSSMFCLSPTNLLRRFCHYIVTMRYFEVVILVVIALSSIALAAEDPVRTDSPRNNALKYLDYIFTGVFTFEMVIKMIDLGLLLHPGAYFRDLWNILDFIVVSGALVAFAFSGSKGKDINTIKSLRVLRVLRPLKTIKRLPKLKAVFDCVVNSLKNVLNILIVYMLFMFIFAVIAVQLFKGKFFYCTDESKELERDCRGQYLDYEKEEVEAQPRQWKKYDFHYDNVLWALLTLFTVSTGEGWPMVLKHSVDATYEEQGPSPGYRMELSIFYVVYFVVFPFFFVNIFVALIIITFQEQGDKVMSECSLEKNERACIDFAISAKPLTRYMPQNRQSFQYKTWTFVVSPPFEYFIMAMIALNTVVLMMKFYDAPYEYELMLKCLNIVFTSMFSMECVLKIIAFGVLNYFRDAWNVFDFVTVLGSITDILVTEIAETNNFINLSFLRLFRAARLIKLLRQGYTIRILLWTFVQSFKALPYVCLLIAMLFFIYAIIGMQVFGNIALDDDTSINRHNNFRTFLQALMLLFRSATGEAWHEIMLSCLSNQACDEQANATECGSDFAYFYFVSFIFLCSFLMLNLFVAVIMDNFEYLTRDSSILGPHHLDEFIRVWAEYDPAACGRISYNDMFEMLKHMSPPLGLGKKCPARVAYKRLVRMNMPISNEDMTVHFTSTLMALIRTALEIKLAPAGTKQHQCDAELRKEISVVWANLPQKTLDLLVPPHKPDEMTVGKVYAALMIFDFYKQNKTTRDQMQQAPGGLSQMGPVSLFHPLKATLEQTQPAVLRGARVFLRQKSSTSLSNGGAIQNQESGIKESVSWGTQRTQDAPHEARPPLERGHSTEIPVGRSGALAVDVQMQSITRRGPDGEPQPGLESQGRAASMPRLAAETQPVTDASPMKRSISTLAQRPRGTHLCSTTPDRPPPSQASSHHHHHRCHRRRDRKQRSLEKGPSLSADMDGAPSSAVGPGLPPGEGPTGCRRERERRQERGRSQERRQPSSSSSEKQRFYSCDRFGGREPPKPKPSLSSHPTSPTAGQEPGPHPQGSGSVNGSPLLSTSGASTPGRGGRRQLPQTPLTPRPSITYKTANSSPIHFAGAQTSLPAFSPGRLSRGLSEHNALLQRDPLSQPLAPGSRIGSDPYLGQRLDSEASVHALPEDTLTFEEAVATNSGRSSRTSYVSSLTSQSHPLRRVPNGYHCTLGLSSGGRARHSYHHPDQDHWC

[11] = target: T3, Voltage-dependent N-type calcium channel subunit alpha-1B; experiment: Inhibition of human Cav2.2 channel transfected in HEK293T cells assessed as inhibition of Cav2.2-mediated Ba2+ current at 1 uM measured for 3 to 5 days by whole-cell patch clamp assay relative to control; type: cell-based; conditions: time 3-5 day
[12] = target: T4, Neuronal acetylcholine receptor; alpha9/alpha10 (Homo sapiens, UniProt Q9GZZ6+Q9UGM1); experiment: Antagonist activity at human wild type alpha9alpha10 nAChR expressed in acetylcholine-induced Xenopus laevis oocytes assessed as inhibition of acetylcholine-induced current at 1:1 ratio of protein by two electrode voltage-clamp assay; type: cell-based, Oocyte
T4 sequence (Q9UGM1 whole entry): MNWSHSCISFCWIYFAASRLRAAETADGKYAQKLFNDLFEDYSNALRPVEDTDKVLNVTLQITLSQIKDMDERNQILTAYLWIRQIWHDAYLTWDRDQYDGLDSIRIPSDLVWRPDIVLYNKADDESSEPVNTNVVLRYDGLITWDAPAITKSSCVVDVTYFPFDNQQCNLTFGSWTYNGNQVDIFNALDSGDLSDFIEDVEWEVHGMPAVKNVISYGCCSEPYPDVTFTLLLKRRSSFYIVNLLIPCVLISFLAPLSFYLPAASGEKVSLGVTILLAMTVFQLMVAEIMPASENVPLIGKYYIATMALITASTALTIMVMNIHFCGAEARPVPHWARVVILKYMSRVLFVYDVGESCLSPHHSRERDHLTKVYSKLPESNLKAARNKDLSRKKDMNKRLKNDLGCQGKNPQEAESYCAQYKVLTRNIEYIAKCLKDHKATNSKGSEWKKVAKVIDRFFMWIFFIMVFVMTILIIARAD
T4 sequence (Q9GZZ6 whole entry): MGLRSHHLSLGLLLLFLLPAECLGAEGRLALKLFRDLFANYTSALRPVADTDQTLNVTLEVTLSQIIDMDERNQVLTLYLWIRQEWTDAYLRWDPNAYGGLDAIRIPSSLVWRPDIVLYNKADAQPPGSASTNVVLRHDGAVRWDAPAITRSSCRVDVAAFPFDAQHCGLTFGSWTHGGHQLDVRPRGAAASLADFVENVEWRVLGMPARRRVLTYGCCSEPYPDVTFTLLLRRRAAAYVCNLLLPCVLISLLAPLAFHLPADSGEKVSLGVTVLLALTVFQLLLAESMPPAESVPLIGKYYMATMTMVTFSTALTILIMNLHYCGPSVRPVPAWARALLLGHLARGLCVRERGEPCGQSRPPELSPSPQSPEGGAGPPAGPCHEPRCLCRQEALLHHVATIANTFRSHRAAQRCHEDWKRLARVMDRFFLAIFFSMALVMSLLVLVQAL

[13] = target: T3, Voltage-dependent N-type calcium channel subunit alpha-1B; experiment: Inhibition of human Cav2.2 channel transfected in HEK293T cells co-expressed with human GABAB receptor assessed as inhibition of Cav2.2-mediated Ba2+ current at 100 nM in presence of CGP 55845 measured for 3 to 5 days by whole-cell patch clamp assay; type: cell-based; conditions: time 3-5 day
[14] = target: Neuronal acetylcholine receptor subunit alpha-7 (Rattus norvegicus) (UniProt Q05941); experiment: Antagonist activity at rat alpha7 nAChR expressed in acetylcholine-induced Xenopus laevis oocytes assessed as inhibition of acetylcholine-induced current at 30 nM by two electrode voltage-clamp assay relative to control; type: cell-based; conditions: Oocyte
[15] = Antagonist activity at human alpha9N152G mutant alpha10 nAChR expressed in acetylcholine-induced Xenopus laevis oocytes assessed as inhibition of acetylcholine-induced current at 1:3 ratio of protein by two electrode voltage-clamp assay; type: cell-based; conditions: Oocyte
[16] = target: Neuronal acetylcholine receptor; alpha3/beta2 (Rattus norvegicus) (UniProt P04757+P12390); experiment: Antagonist activity at rat alpha3beta2 nAChR expressed in acetylcholine-induced Xenopus laevis oocytes assessed as inhibition of acetylcholine-induced current at 100 nM by two electrode voltage-clamp assay; type: cell-based; conditions: Oocyte
[17] = target: T1, Neuronal acetylcholine receptor; alpha9/alpha10 (Homo sapiens); experiment: Antagonist activity at human alpha9alpha10 nAChR expressed in acetylcholine-induced Xenopus laevis oocytes assessed as inhibition of acetylcholine-induced current at 30 nM at -40 mV holding potential by two electrode voltage-clamp assay; type: cell-based; conditions: Oocyte, filed as antagonist
[18] = target: T4, Neuronal acetylcholine receptor; alpha9/alpha10; experiment: Antagonist activity at human wild type alpha9alpha10 nAChR expressed in acetylcholine-induced Xenopus laevis oocytes assessed as inhibition of acetylcholine-induced current at 1:3 ratio of protein by two electrode voltage-clamp assay; type: cell-based, Oocyte
Rattus norvegicus [19] = experiment: Analgesic activity in Chronic constriction injury rat model assessed as decrease in hyperalgesia at 250 microg/kg,IM administrated every 2 hrs for 7 days; type: functional, organism-based; conditions: dose 250.0 µg/kg, time 7.0 day
Rattus norvegicus [20] = experiment: Analgesic activity in Chronic constriction injury rat model assessed as increase in paw withdrawal threshold at 250 microg/kg,IM administration and measured for 0.5 to 48 hrs; type: functional, organism-based; conditions: dose 250.0 µg/kg, time 0.5-48 hrs
Rattus norvegicus [21] = experiment: Analgesic activity in Chronic constriction injury rat model assessed as decrease in hyperalgesia at 250 microg/kg,IM administration and measured for 0.5 to 48 hrs; type: functional, organism-based; conditions: dose 250.0 µg/kg, time 0.5-48 hrs

CC[C@H](C)[C@H](NC(=O)[C@H](CCCNC(=N)N)NC(=O)[C@H](CCCNC(=N)N)NC(=O)[C@H](Cc1ccc(O)cc1)NC(=O)[C@H](CCCNC(=N)N)NC(=O)[C@H](CCCNC(=N)N)NC(=O)[C@H](CCCNC(=N)N)NC(=O)[C@H](CCCNC(=N)N)NC(=O)[C@H](CC(=O)O)NC(=O)[C@H](Cc1ccc(O)cc1)NC(=O)[C@@H]1CCCN1C(=O)[C@H](CO)NC(=O)[C@H](CCCNC(=N)N)NC(=O)[C@H](Cc1ccc(O)cc1)NC(=O)[C@H](CCCNC(=N)N)NC(=O)CN)C(=O)N[C@H](C(=O)N[C@@H](CC(=O)O)C(N)=O)[C@@H](C)O
inhibition [1]: inactive
IC50 [2]: 3.6 nM
inhibition [3]: 40%
Activity [4]: Non-Toxic
inhibition [5]: Active
inhibition [6]: inactive
inhibition [7]: inactive
inhibition [8]: 35%
inhibition [9]: 50%
inhibition [10]: Active
inhibition [11]: 53.6%
IC50 [12]: 25.7 nM
inhibition [13]: inactive
inhibition [14]: 10%
IC50 [15]: 8.8 nM
inhibition [16]: inactive
inhibition [17]: Active
IC50 [18]: 5 nM
Activity (Rattus norvegicus [19]): Active
Activity (Rattus norvegicus [20]): Active
Activity (Rattus norvegicus [21]): Active
